The subject of data set [1] is Tg-SwDI mice. The experiment in a line: Drainage of injected fluorescent label Aβ1-40 through perivascular interstitial fluid pathway. Type of data set: in vivo. The note with it: single images FIGS. 8 to 10, 30 minutes after injection into striate, cilostazol-containing feed group. The source says: To verify interstitial flow improvement by cilostazol, harmful protein drainage facilitation by cilostazol was examined by using a cerebral amyloid angiopathy model. Totally unlike a drainage system through a specific receptor or antigen-antibody reaction, drainage of harmful proteins through the interstitial flow is a general drainage system irrespective of the type and amount of proteins, and Aβ in these examples is merely an example of intracerebral harmful proteins for which the interstitial flow is improved so that drainage is facilitated.
After 15 months from the start of breeding, with respect to Tg-SwDI mice (n=4) of a group administered with cilostazol-containing feed for 13.5 months and Tg-SwDI mice (n=3) of the ordinary feed administered group, Tg-SwDI mice were placed at the prone position under inhalation anesthesia using 1.5% isoflurane, midline incision of scalp was performed, and then, by using a 32 G micropipet, such that a fluorescent label Aβ1-40 was injected for 30 seconds in the manner of stereotaxy into the striate of Tg-SwDI mice (a front part of 0.98 mm and a side part of 1.5 mm in bregma) as indicated by the arrow in FIG. 7. The depth from the brain surface to the injection site of the striate was 3.0 mm, and the fluorescent label Aβ1-40 was purchased from AnaSpec (San Jose, Calif., USA). […]

In the next data set the test system is dementia patients. The experiment in a line: Clinical record analysis, MMSE change in dementia patients (MMSE less than or equal to 21) under donepezil hydrochloride oral administration. Type of data set: in vivo, human. The note with it: dementia patients oral-administered with donepezil hydrochloride.
Data set [2] relates to Tg-SwDI mice. The experiment in a line: Perivascular Aβ deposition by immunohistochemical staining. The format is in vivo. The note with it: vs ordinary feed group. An excerpt: To verify interstitial flow improvement by cilostazol, inhibition of deposition of harmful proteins on the cerebrovascular lymph drainage pathway by cilostazol was examined by using a cerebral amyloid angiopathy model. Totally unlike a drainage system through a specific receptor or antigen-antibody reaction, drainage of harmful proteins through the interstitial flow is a general drainage system irrespective of the type and amount of proteins, and Aβ in these examples is merely an example of intracerebral harmful proteins for which the interstitial flow is improved so that deposition on the cerebrovascular lymph drainage pathway is inhibited.
After 15 months from the start of breeding, with respect to Tg-SwDI mice of a group administered with cilostazol-containing feed for 13.5 months and Tg-SwDI mice of the ordinary feed administered group, the brain was perfusion-fixed by using 4% paraformaldehide, and the extracted brain was dehydrated for one day. Then, a paraffin block of a fixed brain tissue was prepared, and a paraffin block was sliced to 6 microns with a microtome. […] An ImageJ (NIH) was used as image analysis software. Five regions of interest were randomly selected from the frontal lobe and the hippocampus region in a tissue section, and photographed in a field with a magnification of 200. The measured data was analyzed by using a t test.

For a further data set, the system named is MCI patients. The data set can be described thus: Retrospective clinical survey, MMSE change in patients with first MMSE score 22 to 26 (MCI), no anti-dementia drugs. The format is in vivo, human. An excerpt: Harmful proteins such as tau protein, α-synuclein protein, amyloid β protein, and ubiquitinated protein, which cause disorders in nerve function, are gradually accumulated in the brain with age. Irrespective of the type of accumulated harmful proteins, mild disorders in cognitive function is observed in an initial stage. However, in this stage, irreversible neuron degeneration in cranial nerve tissues has been seldom observed yet. Thus, activation of the interstitial flow, which is one of major drainage pathways of harmful proteins, might cure mild disorders of cognitive function. To examine this hypothesis, it was evaluated how consecutive oral administration of cilostazol affects cognitive functions of patients having MMSE scores greater than or equal to 22 and less than or equal to 26 and suspected to have mild deterioration of cognitive function.
A survey was conducted on consecutive cases (3183 cases in total) between 1996 and 2012 whose records of cilostazol administration exist, and examination using all the cases that match the following conditions was carried out. In this examination, to eliminate the influence of anti-dementia drugs, all the patients administered with anti-dementia drugs such as donepezil were removed from the analysis.
(i) The mini mental state exam (MMSE), which is a typical test of cognitive function, was performed twice or more with an interval of 6 months or more a case where the MMSE was performed three or more times, two examination results of the first examination and the last examination were selected);
(ii) The first MMSE score was greater than or equal to 22 and less than or equal to 26;
(iii) A case in which cilostazol was administered in a period at least more than a half of an MMSE observation period was selected as a group (hereinafter referred to as a treated group) subjected to consecutive treatment; and
(iv) A case in which cilostazol was administered in two months or less in the MMSE observation period was selected as a group (hereinafter referred to as an untreated group) not subjected to consecutive treatment.
(i) The rate of change in MMSE scores in each group (calculation method: [last MMSE score−first MMSE score]/MMSE observation period [years]); and
(ii) The rate of change in scores in each item of the MMSE test in each group (calculation method: [score of last MMSE test item−score of first MMSE test item]/MMSE observation period [years]).
In comparison between the two groups, statistical analysis was conducted such that the rate difference was obtained by using a chi-square test and other items were obtained by using a t test.

Structures are written as SMILES. Values joined by “and” are separate entries in the source; they are usually repeats but may differ in a detail not shown here. Equal values may be shown once.

From the text for dementia patients: Patients subjected to oral administration of donepezil hydrochloride, having an observation period of one or more years before the MMSE test date, and having first MMSE scores less than or equal to 26 were picked up from a clinical record. Among the patients, patients recorded to have been consecutively administered with cilostazol for 6 months or more in the observation period were classified as a donepezil hydrochloride and cilostazol combined use group (69 cases), and patients recorded to have experienced no cilostazol oral administration were classified as a donepezil hydrochloride single use group (87 cases). Cilostazol was oral-administered at a dosage of 50 to 200 mg/day in the morning and evening, and donepezil hydrochloride was administered at a dosage of 5 mg/day once in a day.
As a dementia patient group oral-administered with donepezil hydrochloride, patients with MMSE scores less than or equal to 21 were extracted. Then, the donepezil hydrochloride single use group (the single use group) was 51 cases (17 males and 34 females, average age: 78.2 years old) and the donepezil hydrochloride and cilostazol combined use group (the combined use group) was 35 cases (14 males and 21 females, average age: 79.3 years old). The average dosage of cilostazol in the combined use group was 139 mg/day.

As for `O=C1CCc2cc(OCCCCc3nnnn3C3CCCCC3)ccc2N1` [cilostazol, 6-[4-(1-cyclohexyl-1H-tetrazole-5-yl)butoxy]3,4-dihydrocarbostyril], in the data set with Tg-SwDI mice [1], the “distance of fluorescent label Aβ1-40 accumulation site of a leptomeninges vessel from the injection site” value was 2922 μm and 3422 μm and 3507 μm. The effectiveness for dementia result in the data set with dementia patients is “no effectiveness for dementia”. In addition, the “deposition of Aβ on the perivascular site” value in the data set with Tg-SwDI mice [2] (cilostazol-containing feed for 8 months from 4 months of age, FIG. 15) is “reduced”; with Tg-SwDI mice [2] (cilostazol-containing feed for 13.5 months from 1.5 months of age, FIG. 16), “reduced”. Also, in the data set with Tg-SwDI mice [2] (frontal lobe and hippocampus, FIGS. 13 and 14), the “amount of Aβ deposited on a perivascular site” value is given as “smaller”. For the same molecule, in the data set with MCI patients (MCI patients, as described in Example (4)), the “increase in MMSE scores (treated vs untreated group)” value was “about 4”. Further, the “rate of change in MMSE score” value in the data set on MCI patients (MCI treated group (31 cases), first MMSE 22-26, average±standard error, P=0.007 vs untreated) came out at 0.4±0.7 per year. In addition, the “rate of change in MMSE item 5 of delayed recall” value with MCI patients (MCI treated group, score change/observation period [years], P=0.004 vs untreated) is recorded as 0.16±0.13. Moreover, the “rate of change in MMSE item 9 of command with sentence” value in the data set on MCI patients (MCI treated group, score change/observation period [years], P=0.008 vs untreated) came out at 0.01±0.06. Moreover, the “rate of change in MMSE item 11 of visual configuration” value in the data set with MCI patients (MCI treated group, score change/observation period [years], P=0.02 vs untreated) was found to be 0.03±0.08. The “rate of change in MMSE item 1 of orientation to time” value with MCI patients (MCI treated group, score change/observation period [years], P=0.03 vs untreated) was −0.13±0.16. Further, the “side effects leading to no consecutive cilostazol treatment” value with MCI patients (untreated group of MCI survey) was “side effects such as diarrhea and headaches”.

These data come from patent publication US10016409B2, “Method for improving interstitial flow” (priority 2012, dated 2018).
